# Test results reported in ChEMBL document CHEMBL5055653, “Synthesis, microbiological evaluation and structure activity relationship analysis of linezolid analogues with different C5-acylamino substituents” (2021).
# Active and inactive are the calls of the source. The rule behind the calls is not given here.
# How the values were obtained:
# Staphylococcus aureus [1] = experiment: Antibacterial activity against Staphylococcus aureus USA 300 assessed as reduction in bacterial growth incubated for 20 hrs by microplate reader method; assay type: functional
# Enterococcus faecium = experiment: Antibacterial activity against Vanomycin-resistant Enterococcus faecium NCTC 12204 assessed as reduction in bacterial growth incubated for 20 hrs by microplate reader method; assay type: functional
# Enterococcus faecalis [2] = experiment: Antibacterial activity against Vanomycin-sensitive Enterococcus faecalis NCTC 775 assessed as reduction in bacterial growth incubated for 20 hrs by microplate reader method; assay type: functional
# Escherichia coli = experiment: Antibacterial activity against Escherichia coli NCTC 12923 assessed as reduction in bacterial growth incubated for 20 hrs in presence of PMBN by microplate reader method; assay type: functional, organism-based
# Pseudomonas aeruginosa [3] = experiment: Antibacterial activity against Pseudomonas aeruginosa PAO1 assessed as reduction in bacterial growth incubated for 20 hrs in presence of PMBN by microplate reader method; assay type: functional
# Pseudomonas aeruginosa [4] = experiment: Antibacterial activity against Pseudomonas aeruginosa NCTC 13437 assessed as reduction in bacterial growth incubated for 20 hrs in presence of PMBN by microplate reader method; assay type: functional, organism-based
# Enterococcus faecalis [5] = experiment: Antibacterial activity against Vanomycin-resistant Enterococcus faecalis NCTC 12201 assessed as reduction in bacterial growth incubated for 20 hrs by microplate reader method; assay type: functional
# Staphylococcus aureus [6] = experiment: Antibacterial activity against Staphylococcus aureus NCTC 13616 assessed as reduction in bacterial growth incubated for 20 hrs by microplate reader method; assay type: functional
# Acinetobacter baumannii [7] = experiment: Antibacterial activity against Acinetobacter baumannii ATCC 17978 assessed as reduction in bacterial growth incubated for 20 hrs in presence of PMBN by microplate reader method; assay type: functional, organism-based
# Acinetobacter baumannii [8] = experiment: Antibacterial activity against Acinetobacter baumannii AYE assessed as reduction in bacterial growth incubated for 20 hrs in presence of PMBN by microplate reader method; assay type: functional, organism-based
# Staphylococcus aureus [9] = experiment: Antibacterial activity against Staphylococcus aureus 1199B assessed as reduction in bacterial growth incubated for 20 hrs by microplate reader method; assay type: functional
# Staphylococcus aureus [10] = experiment: Antibacterial activity against Staphylococcus aureus ATCC 9144 assessed as reduction in bacterial growth incubated for 20 hrs by microplate reader method; assay type: functional
SMILES,MIC (Staphylococcus aureus [1]) [µg/mL],MIC (Enterococcus faecium) [µg/mL],MIC (Enterococcus faecalis [2]) [µg/mL],Activity (Escherichia coli),Activity (Pseudomonas aeruginosa [3]),Activity (Pseudomonas aeruginosa [4]),MIC (Enterococcus faecalis [5]) [µg/mL],MIC (Staphylococcus aureus [6]) [µg/mL],Activity (Acinetobacter baumannii [7]),Activity (Acinetobacter baumannii [8]),MIC (Staphylococcus aureus [9]) [µg/mL],MIC (Staphylococcus aureus [10]) [µg/mL],MIC (Pseudomonas aeruginosa [3]) [µg/mL]
O=C(NC[C@H]1CN(c2ccc(N3CCOCC3)c(F)c2)C(=O)O1)[C@H]1CCNC1,> 128,> 128,> 128,inactive,inactive,inactive,> 128,> 128,inactive,inactive,> 128,> 128,
Cc1ccc(CC(=O)NC[C@H]2CN(c3ccc(N4CCOCC4)c(F)c3)C(=O)O2)cc1,128,16,64,,,,16,64,,,64,128,
NCCCC(=O)NC[C@H]1CN(c2ccc(N3CCOCC3)c(F)c2)C(=O)O1,> 128,64,> 128,,,,> 128,> 128,,,> 128,> 128,
O=C(NC[C@H]1CN(c2ccc(N3CCOCC3)c(F)c2)C(=O)O1)c1cnccn1,64,64,64,,,,64,64,,,32,64,
CC(=O)NC[C@H]1CN(c2ccc(N3CCOCC3)c(F)c2)C(=O)O1 [LINEZOLID],,2,,,,,,,,,,,
O=C(NC[C@H]1CN(c2ccc(N3CCOCC3)c(F)c2)C(=O)O1)c1cncs1,16,16,16,inactive,,inactive,16,16,inactive,inactive,16,16,16
CCC(=O)NC[C@H]1CN(c2ccc(N3CCOCC3)c(F)c2)C(=O)O1,8,4,4,,,,4,4,,,4,8,
Cn1cc([N+](=O)[O-])nc1C(=O)NC[C@H]1CN(c2ccc(N3CCOCC3)c(F)c2)C(=O)O1,> 128,> 128,> 128,,,,> 128,> 128,,,> 128,> 128,
O=C(NC[C@H]1CN(c2ccc(N3CCOCC3)c(F)c2)C(=O)O1)[C@@H]1CCNC1,> 128,> 128,> 128,inactive,inactive,inactive,> 128,> 128,inactive,inactive,> 128,> 128,
O=C(NC[C@H]1CN(c2ccc(N3CCOCC3)c(F)c2)C(=O)O1)c1cc2ncccc2o1,16,16,16,,,,8,16,,,16,16,
O=C(Cc1nnn[nH]1)NC[C@H]1CN(c2ccc(N3CCNCC3)c(F)c2)C(=O)O1,> 128,> 128,> 128,,,,> 128,> 128,,,> 128,> 128,
O=C(Cc1cccc2ccccc12)NC[C@H]1CN(c2ccc(N3CCOCC3)c(F)c2)C(=O)O1,> 128,64,> 128,,,,32,> 128,,,> 128,> 128,
O=C(NC[C@H]1CN(c2ccc(N3CCOCC3)c(F)c2)C(=O)O1)c1cnco1,> 128,128,64,inactive,inactive,inactive,128,128,inactive,inactive,128,128,
O=C(NC[C@H]1CN(c2ccc(N3CCOCC3)c(F)c2)C(=O)O1)c1cnc(Br)s1,32,8,32,inactive,,inactive,16,16,inactive,inactive,32,16,16
O=C(NC[C@H]1CN(c2ccc(N3CCOCC3)c(F)c2)C(=O)O1)c1ccsc1,16,8,16,,,,8,16,,,8,16,
CN1CCC(C(=O)NC[C@H]2CN(c3ccc(N4CCOCC4)c(F)c3)C(=O)O2)C1 (some centres undefined),> 128,> 128,> 128,,,,> 128,> 128,,,> 128,> 128,
O=C(NC[C@H]1CN(c2ccc(N3CCOCC3)c(F)c2)C(=O)O1)C1CCC1,16,8,16,,,,8,8,,,8,16,
NCCC(=O)NC[C@H]1CN(c2ccc(N3CCOCC3)c(F)c2)C(=O)O1,> 128,16,> 128,,,,128,> 128,,,> 128,> 128,
Cc1ncsc1C(=O)NC[C@H]1CN(c2ccc(N3CCOCC3)c(F)c2)C(=O)O1,16,16,32,inactive,,inactive,16,16,inactive,inactive,32,16,16
Cc1nc(Br)sc1C(=O)NC[C@H]1CN(c2ccc(N3CCOCC3)c(F)c2)C(=O)O1,16,32,32,,,,32,16,,,16,16,
NCC(=O)NC[C@H]1CN(c2ccc(N3CCOCC3)c(F)c2)C(=O)O1,> 128,32,64,,,,64,> 128,,,> 128,> 128,
O=C(NC[C@H]1CN(c2ccc(N3CCOCC3)c(F)c2)C(=O)O1)C1CCCS1 (some centres undefined),32,32,32,,,,32,32,,,32,64,
CC(C)C(=O)NC[C@H]1CN(c2ccc(N3CCOCC3)c(F)c2)C(=O)O1,16,8,16,,,,8,16,,,8,16,
O=C(NC[C@H]1CN(c2ccc(N3CCOCC3)c(F)c2)C(=O)O1)C1CC=CC1,16,16,16,,,,8,16,,,8,16,
O=C(NC[C@H]1CN(c2ccc(N3CCOCC3)c(F)c2)C(=O)O1)c1cccs1,16,8,16,inactive,,inactive,8,16,inactive,inactive,8,16,16
CCCC(=O)NC[C@H]1CN(c2ccc(N3CCOCC3)c(F)c2)C(=O)O1,16,8,8,,,,8,8,,,8,8,
O=C(NC[C@H]1CN(c2ccc(N3CCOCC3)c(F)c2)C(=O)O1)C1CC1,8,8,8,,,,8,8,,,8,8,
O=C(NC[C@H]1CN(c2ccc(N3CCOCC3)c(F)c2)C(=O)O1)c1cc2ccccc2[nH]1,> 128,> 128,> 128,,,,> 128,> 128,,,> 128,> 128,
O=C(NC[C@H]1CN(c2ccc(N3CCOCC3)c(F)c2)C(=O)O1)c1ccccc1,32,16,32,,,,16,32,,,16,64,
O=C(NC[C@H]1CN(c2ccc(N3CCOCC3)c(F)c2)C(=O)O1)c1cc[nH]c1,32,16,32,,,,32,64,,,64,32,
